Measurements reported in US20240124422A1, “MUTANT PI3K-ALPHA INHIBITORS AND THEIR USE AS PHARMACEUTICALS” (Prelude Therapeutics Incorporated, priority 2022, published 2024).

System: phosphorylation of AKT on Ser473 as a readout of the PI3K pathway in T-47D (heterozygous PIK3CA H1047R) cells
Experiment: PI3K pathway activation assay, pAKT Ser473 HTRF, T-47D cells
Format: cell-based
Settings: Homo sapiens, T47D, 2 h, two hours of treatment
Procedure: The inhibitory activity of compounds was evaluated by measuring phosphorylation of AKT on Ser473 as a readout of the PI3K pathway using HTRF (CisBio catalog number: 64AKSPE). These studies were conducted in the T-47D (heterozygous PIK3CA H1047R) and SKBR3 (PIK3CA WT) cell lines. Cells were maintained in a 37° C. incubator at 5% CO2 in the following media: T-47D: RPMI 1640, ATCC© Modification (Gibco, A10491-01) supplemented with 10% v/v FBS (Gibco, 26140-079), 1% penicillin streptomycin (Gibco, 15140-122), and 7.4 ug/mL insulin (MilliporeSigma, I9278); SKBR3: McCoy's 5a (Modified) Medium (Gibco, 16600-082) supplemented with 10% v/v FBS (Gibco, 26140-079). Cells were seeded in 384-well plates at a density of 4,000 cells/well. Compounds dissolved in DMSO were added using a digital dispense (D300E, Tecan) 10-point serial dilution. After two hours of treatment, cells were lysed for thirty minutes and then incubated with detection reagents per HTRF kit material and manufacturer's instructions. Fluorescence signal was measured with a multimode plate reader (Envision 2105, Perkin Elmer). Fluorescent signal was normalized to background and DMSO controls to obtain percent inhibition/activity for each compound.

Row | IC50 | Structure (SMILES)
1 | < 500 nM | CC(Nc1ccccc1C(=O)O)c1cc(Br)cc2c(=O)n(C)c(N3CCC(F)(F)CC3)nc12 (stereo not drawn) [Example 74, 2-((1-(6-Bromo-2-(4,4-difluoropiperidin-1-yl)-3-methyl-4-oxo-3,4-dihydroquinazolin-8-yl)ethyl)amino)benzoic acid]
2 | 500 to 10000 nM | Cc1cc(C(C)Nc2c(F)cccc2C(=O)O)c2nc(N3Cc4ccccc4C3)n(C)c(=O)c2c1 (stereo not drawn) [Example 45, 3-fluoro-2-((1-(2-(isoindolin-2-yl)-3,6-dimethyl-4-oxo-3,4-dihydroquinazolin-8-yl)ethyl)amino)benzoic acid]
3 | 500 to 10000 nM | Cc1cc(C(C)Nc2ccccc2C(=O)O)c2nc(N3CC4CC3C4)n(C)c(=O)c2c1 (stereo not drawn) [Example 117, 2-((1-(2-(2-Azabicyclo[2.1.1]hexan-2-yl)-3,6-dimethyl-4-oxo-3,4-dihydroquinazolin-8-yl)ethyl)amino)benzoic acid]
4 | < 500 nM | Cc1cc(C(C)Nc2ccccc2C(=O)O)c2nc(N3CCN(C(=O)C4CCCC4)CC3)n(C)c(=O)c2c1 (stereo not drawn) [Example 91, 2-((1-(2-(4-(Cyclopentanecarbonyl)piperazin-1-yl)-3,6-dimethyl-4-oxo-3,4-dihydroquinazolin-8-yl)ethyl)amino)benzoic acid]
5 | 500 to 10000 nM | Cc1cc(C(C)Nc2ccccc2C(=O)O)c2nc(N3CCN(C(=O)C45CC(F)(C4)C5)CC3)n(C)c(=O)c2c1 (stereo not drawn) [Example 92, 2-((1-(2-(4-(3-Fluorobicyclo[1.1.1]pentane-1-carbonyl)piperazin-1-yl)-3,6-dimethyl-4-oxo-3,4-dihydroquinazolin-8-yl)ethyl)amino)benzoic acid]
6 | 500 to 10000 nM | CC(Nc1ccccc1C(=O)O)c1cc(C2CC2)cc2c(=O)n(C)c(N3CC4CC4C3)nc12 (stereo not drawn) [Example 76, 2-((1-(2-(3-Azabicyclo[3.1.0]hexan-3-yl)-6-cyclopropyl-3-methyl-4-oxo-3,4-dihydroquinazolin-8-yl)ethyl)amino)benzoic acid]
7 | < 500 nM | Cc1cc(C(C)Nc2ccccc2C(=O)O)c2nc(N3CCC(C)(C)CC3)n(C)c(=O)c2c1 (stereo not drawn) [Example 17, 2-((1-(2-(4,4-dimethylpiperidin-1-yl)-3,6-dimethyl-4-oxo-3,4-dihydroquinazolin-8-yl)ethyl)amino)benzoic acid]
8 | 500 to 10000 nM | Cc1cc(C(C)Nc2ccccc2C(=O)O)c2nc(N3CCC4(CC3)CN(C(=O)OC(C)(C)C)C4)n(C)c(=O)c2c1 (stereo not drawn) [Example 108, 2-[1-[3,6-dimethyl-2-[2-[(2-methylpropan-2-yl)oxycarbonyl]-2,7-diazaspiro[3.5]nonan-7-yl]-4-oxoquinazolin-8-yl]ethylamino]benzoic acid]
9 | 500 to 10000 nM | Cc1cc(C(Nc2ccccc2C(=O)O)C(F)(F)F)c2nc(N3CC4CC4C3)n(C)c(=O)c2c1 (stereo not drawn) [Example 47, 2-[[1-[2-(3-azabicyclo[3.1.0]hexan-3-yl)-3,6-dimethyl-4-oxoquinazolin-8-yl]-2,2,2-trifluoroethyl]amino]benzoic acid]
10 | 500 to 10000 nM | CC(=O)N1C[C@H]2CN(c3nc4c(C(C)Nc5ccccc5C(=O)O)cc(C)cc4c(=O)n3C)C[C@@H]2C1 (stereo partly drawn) [Example 66, 2-((1-(2-((3aR,6aR)-5-Acetylhexahydropyrrolo[3,4-c]pyrrol-2(1H)-yl)-3,6-dimethyl-4-oxo-3,4-dihydroquinazolin-8-yl)ethyl)amino)benzoic acid]
11 | 500 to 10000 nM | Cc1cc(C(C)Nc2cc(F)ncc2C(=O)O)c2nc(N3CC4CC4C3)n(C)c(=O)c2c1 (stereo not drawn) [Example 125, 4-((1-(2-(3-Azabicyclo[3.1.0]hexan-3-yl)-3,6-dimethyl-4-oxo-3,4-dihydroquinazolin-8-yl)ethyl)amino)-6-fluoronicotinic acid]
12 | < 500 nM | Cc1cc(C(C)Nc2ccccc2C(=O)O)c2nc(N3CCN(C(=O)c4ccc(C)nc4)CC3)n(C)c(=O)c2c1 (stereo not drawn) [Example 94, 2-((1-(3,6-Dimethyl-2-(4-(6-methylnicotinoyl)piperazin-1-yl)-4-oxo-3,4-dihydro-quinazolin-8-yl)ethyl)amino)benzoic acid]
13 | 500 to 10000 nM | Cc1cc(C(C)Nc2ccccc2C(=O)O)c2nc(N3CCC(c4ccccc4)C3)n(C)c(=O)c2c1 (single isomer, unassigned) [Example 52, 2-[1-[3,6-dimethyl-4-oxo-2-(3-phenylpyrrolidin-1-yl)quinazolin-8-yl]ethylamino]benzoic acid]
14 | 500 to 10000 nM | COc1ccc(NC(C)c2cc(C)cc3c(=O)n(C)c(N4CC5CC5C4)nc23)c(C(=O)O)c1 (stereo not drawn) [Example 122, 2-[1-[2-(3-Azabicyclo[3.1.0]hexan-3-yl)-3,6-dimethyl-4-oxoquinazolin-8-yl]ethylamino]-5-methoxybenzoic acid]
15 | < 500 nM | CC(Nc1ccccc1C(=O)O)c1cc(C(F)(F)F)cc2c(=O)n(C)c(N3Cc4ccccc4C3)nc12 (stereo not drawn) [Example 15, 2-((1-(2-(isoindolin-2-yl)-3-methyl-4-oxo-6-(trifluoromethyl)-3,4-dihydroquinazolin-8-yl)ethyl)amino)benzoic acid]
16 | < 500 nM | Cc1cc(C(C)Nc2ccccc2C(=O)O)c2nc(N3CCC(F)(F)CC3)n(C)c(=O)c2c1 (single isomer, unassigned) [Example 37, 2-((1-(2-(4,4-difluoropiperidin-1-yl)-3,6-dimethyl-4-oxo-3,4-dihydroquinazolin-8-yl)ethyl)amino)benzoic acid]
17 | 500 to 10000 nM | Cc1cc(C(C)Nc2ccccc2C(=O)O)c2nc(N3CCc4ccccc4C3)n(C)c(=O)c2c1 (stereo not drawn) [Example 51, 2-[1-[2-(3,4-dihydro-1H-isoquinolin-2-yl)-3,6-dimethyl-4-oxoquinazolin-8-yl]ethylamino]benzoic acid]
18 | 500 to 10000 nM | Cc1cc(C(C)Nc2ccccc2C(=O)O)c2nc(N3CCCC34CC4)n(C)c(=O)c2c1 (stereo not drawn) [Example 114, 2-((1-(3,6-dimethyl-4-oxo-2-(4-azaspiro[2.4]heptan-4-yl)-3,4-dihydroquinazolin-8-yl)ethyl)amino)benzoic acid]
19 | 500 to 10000 nM | CSc1ncc(NC(C)c2cc(C)cc3c(=O)n(C)c(N4CC5CC5C4)nc23)c(C(=O)O)n1 (stereo not drawn) [Example 118, 5-((1-(2-(3-Azabicyclo[3.1.0]hexan-3-yl)-3,6-dimethyl-4-oxo-3,4-dihydroquinazolin-8-yl)ethyl)amino)-2-(methylthio)pyrimidine-4-carboxylic acid]

Row | Structure (SMILES) | IC50
20 | Cc1cc(C(C)Nc2ccccc2C(=O)O)c2nc(C3CCCN3S(=O)(=O)F)n(C)c(=O)c2c1 (stereo not drawn) [Example 73, 2-[1-[2-(1-Fluorosulfonylpyrrolidin-2-yl)-3,6-dimethyl-4-oxoquinazolin-8-yl]ethylamino]benzoic acid] | 500 to 10000 nM
21 | Cc1cc(C(C)Nc2ccccc2C(=O)O)c2nc(N3C4CCC3CC4)n(C)c(=O)c2c1 (stereo not drawn) [Example 111, 2-[1-[2-(7-azabicyclo[2.2.1]heptan-7-yl)-3,6-dimethyl-4-oxoquinazolin-8-yl]ethylamino]benzoic acid] | < 500 nM
22 | Cc1cc(C(C)Nc2ccc(C(F)(F)F)cc2C(=O)O)c2nc(N3Cc4ccccc4C3)n(C)c(=O)c2c1 (stereo not drawn) [Example 30, 2-((1-(2-(isoindolin-2-yl)-3,6-dimethyl-4-oxo-3,4-dihydroquinazolin-8-yl)ethyl)amino)-5-(trifluoromethyl)benzoic acid] | 500 to 10000 nM
23 | Cc1cc(C(C)Nc2ccc(Cl)cc2C(=O)O)c2nc(N3Cc4ccccc4C3)n(C)c(=O)c2c1 (stereo not drawn) [Example 33, 5-chloro-2-((1-(2-(isoindolin-2-yl)-3,6-dimethyl-4-oxo-3,4-dihydroquinazolin-8-yl)ethyl)amino)benzoic acid] | 500 to 10000 nM

Same assay, conditions: two hours of treatment, read-out: T47D pAKT IC50

Row | Structure (SMILES) | IC50
24 | CNC(=O)C1[C@H]2CN(c3nc4c(C(C)Nc5ccccc5C(=O)O)cc(C)cc4c(=O)n3C)C[C@@H]12 (stereo partly drawn) [Example 89, 2-((1-(3,6-Dimethyl-2-((1R,5S,6R)-6-(methylcarbamoyl)-3-azabicyclo[3.1.0]hexan-3-yl)-4-oxo-3,4-dihydroquinazolin-8-yl)ethyl)amino)benzoic acid] | 500 to 10000 nM
25 | Cc1cc(C(C)Nc2ccccc2C(=O)O)c2nc(N3C[C@@H]4C(NC(=O)OCc5ccccc5)[C@@H]4C3)n(C)c(=O)c2c1 (stereo partly drawn) [Example 59, 2-((1-(2-((1R,5S,6s)-6-(((benzyloxy)carbonyl)amino)-3-azabicyclo[3.1.0]hexan-3-yl)-3,6-dimethyl-4-oxo-3,4-dihydroquinazolin-8-yl)ethyl)amino)benzoic acid] | 500 to 10000 nM
26 | Cc1cc(C(C)Nc2ccccc2C(=O)O)c2nc(N3C[C@@H]4[C@H](C3)[C@H]4C(=O)N3CCOC[C@@H]3C)n(C)c(=O)c2c1 (stereo partly drawn) [Example 86, 2-((1-(3,6-Dimethyl-2-((1R,5S,6R)-6-((S)-3-methylmorpholine-4-carbonyl)-3-azabicyclo[3.1.0]hexan-3-yl)-4-oxo-3,4-dihydroquinazolin-8-yl)ethyl)amino)benzoic acid] | < 500 nM
27 | Cc1cc(C(C)Nc2ccccc2C(=O)O)c2nc(N3C[C@@H]4[C@H](C3)[C@H]4C(=O)N(C)CC(F)F)n(C)c(=O)c2c1 (stereo partly drawn) [Example 84, 2-((1-(2-((1R,5S,6R)-6-((2,2-Difluoroethyl)(methyl)carbamoyl)-3-azabicyclo[3.1.0]hexan-3-yl)-3,6-dimethyl-4-oxo-3,4-dihydroquinazolin-8-yl)ethyl)amino)benzoic acid] | < 500 nM
